Earlier results on three compounds are cited in publication PMC11215356 (Haematologica, 2024).

One data set has as its system CLL/SLL. The conditions noted are these: CLL/SLL patients, range over previous Syk inhibitor studies.
For a further data set, the system named is FL. The conditions noted are these: FL patients.
Data set [1] relates to patients treated with fostamatinib.

With `CCS(=O)(=O)N1CCN(c2ccc(Nc3ncc(C(N)=O)c(NC4CC4)n3)cc2)CC1` [cerdulatinib], in the data set with CLL/SLL, the ORR was 33-61% and the mPFS is 5.6-13.8 months.

As to `c1cn2cc(-c3ccc4cn[nH]c4c3)nc(Nc3ccc(N4CCOCC4)cc3)c2n1` [entospletinib], the mPFS with FL is 4.6 months; with CLL/SLL, 5.6-13.8 months. The ORR in the data set on CLL/SLL is on record as 33-61%.

On to `COc1cc(Nc2ncc(F)c(Nc3ccc4c(n3)N(COP(=O)(O)O)C(=O)C(C)(C)O4)n2)cc(OC)c1OC` [fostamatinib], for which, in the data set with FL, the mPFS is 5.7 months. Further, in the data set on CLL/SLL, the ORR is on record as 33-61% and the mPFS is reported as 5.6-13.8 months. In data set [1], the “diarrhea as a DLT event” value was 21% and the “diarrhea as one of the most common TRAE” value is 41%.
